Experimental data as given in PMC4320118, “Micheliolide Derivative DMAMCL Inhibits Glioma Cell Growth In Vitro and In Vivo” (PLoS ONE, 2015).
Where two headings read alike, the source gives them in different places.

Test system: intracerebral C6 glioma
Description: Adult Wistar rats (120–180 g, age 4–8 weeks) were obtained from the Animal Center at the Academy of Military Medical Sciences and had animal certification of SCXK (army) 2012–001. Animals were housed in collective cages at a temperature of 23 ± 2°C and relative humidity of 40% to 70%. All rats had free access to food and water.
Intracerebral tumor implantations were performed according to the following procedures. C6 tumors were maintained as subcutaneous tumors in rats. Subcutaneous masses were excised, dissociated, and mixed with matrigel on ice (BD Biosciences) at a ratio of 1:1. After removing of the hair on the skull, a small midline incision in the scalp was gently made under anesthesia with 2% sodium pentobarbital at a dose of 40mg/kg. C6 cells in matrigel (0.1 mL of the cell/matrigel mixture containing 10^8 cells /mL) were carefully injected into the right frontal cortex by a special 16-gauge stainless steel needle with 5 mm needle tubing. Implantation coordinates were determined from Swanson’s Stereotaxic Atlas guidelines (1992): 1.0 mm anterior and 3.0 mm lateral to bregma, at a depth of 5.0 mm from the brain surface. […] The syringe was slowly retracted, the hole was sealed with bone wax, and the incision was sutured under aseptic conditions. […] Then 0.015 mg/kg buprenorphine (s.c.) was administered to relieve the pain. The rats were replaced in cages and allowed to recover from anesthesia.
Rats were divided into the following 5 treatment groups 24 h after surgery (n = 9 rats /group) according to rat weight: 1) vehicle (normal saline: NS); 2) vincristine (VCR) at 100μg/kg; 3) DMAMCL at 25 mg/kg; 4) DMAMCL at 50 mg/kg; and 5) DMAMCL at 100 mg/kg. All drugs were prepared in NS and administered once daily for 21 days. DMAMCL was administered orally, and VCR was injected into the caudal vein. Rats were weighed and monitored for signs of mortality daily. Twenty one days into the treatment, rats were euthanized via CO2 asphyxiation under deep anesthesia by sodium pentobarbital. Brains and tumors were separated from the cerebellum and medulla oblongata, and weighed, photographed, fixed in formalin, and embedded in paraffin for sectioning. The tumor: brain weight ratio was assessed to observe the degree of tumor cell growth in brain. Serial sections (5 μm in thickness) were stained by hematoxylin and eosin (HE).

[1] = DMAMCL 25 mg/kg orally once daily for 21 days
[2] = DMAMCL 50 mg/kg orally once daily for 21 days
[3] = DMAMCL 100 mg/kg orally once daily for 21 days

For `CC1=C2CC[C@@](C)(O)[C@@H]2[C@H]2OC(=O)[C@@H](CN(C)C)[C@@H]2CC1` [DMAMCL, dimethylaminomicheliolide], the “Body weight End” value [1] was 223.8 ± 13.1 g, the “Inhibition (percent decrease in tumor weight compared to the vehicle group)” value [1] was 59.9% and the Tumor weight [1] was 0.29 ± 0.20 g. The Tumor/brain [1] was 15.0 ± 9.5 %, the “Rats surviving to the end of the study” value (DMAMCL 25 mg/kg, 21 days) was 89% and the “Body weight End” value [2] was 227.5 ± 11.9 g. For the same compound, the “Inhibition (percent decrease in tumor weight compared to the vehicle group)” value [2] was 78.7%, the Tumor weight [2] was 0.15 ± 0.12 g and the Tumor/brain [2] was 6.3 ± 3.9 %. For the same compound, the “Rats surviving to the end of the study” value (DMAMCL 50 mg/kg, 21 days) was 89%, the “Body weight End” value [3] was 224.0 ± 12.1 g and the “Inhibition (percent decrease in tumor weight compared to the vehicle group)” value [3] was 87.5%. The “Signs of toxicity in tumor-bearing rats” value [3] was “no signs of systemic or intracranial toxicity”, the Tumor weight [3] was 0.09 ± 0.09 g and the Tumor/brain [3] was 4.2 ± 3.1 %. For the same compound, the “Histopathology of brain tissue (HE)” value (DMAMCL 100 mg/kg, 21 days) was “appeared similar to normal brain tissues” and the “Rats surviving to the end of the study” value (DMAMCL 100 mg/kg, 21 days) was 100%.
